Assay results: PubChem BioAssay (NCI)
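Method: 48-hour compound exposure of cells in 96-well plates, five concentrations, linear interpolation of endpoints. GI50 marks 50% less growth. TGI: concentration producing complete growth inhibition.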

Legend:
Experiment in all cases: NCI-60 cell line screen, 48 h
BT-549 breast = test system: BT-549 breast
EKVX NSCLC = test system: EKVX NSCLC
HCT-116 colon = test system: HCT-116 colon
HCT-15 colon = test system: HCT-15 colon
HOP-92 NSCLC = test system: HOP-92 NSCLC
LOX IMVI melanoma = test system: LOX IMVI melanoma
SK-MEL-28 melanoma = test system: SK-MEL-28 melanoma
SNB-75 CNS = test system: SNB-75 CNS
SR leukemia = test system: SR leukemia
MOLT-4 leukemia = test system: MOLT-4 leukemia

Row | Compound | TGI (BT-549 breast) | TGI (EKVX NSCLC) | TGI (HCT-116 colon) | TGI (HCT-15 colon) | TGI (HOP-92 NSCLC) | TGI (LOX IMVI melanoma) | TGI (SK-MEL-28 melanoma) | TGI (SNB-75 CNS) | TGI (SR leukemia) | TGI (MOLT-4 leukemia) | GI50 (BT-549 breast) | GI50 (EKVX NSCLC) | GI50 (HCT-116 colon) | GI50 (HCT-15 colon) | GI50 (HOP-92 NSCLC) | GI50 (LOX IMVI melanoma) | GI50 (MOLT-4 leukemia) | GI50 (SK-MEL-28 melanoma) | GI50 (SNB-75 CNS) | GI50 (SR leukemia)
1 | C=C(C)C12CC(COC(=O)c3ccccc3)C34OC5(OC1C3C1OC1(CO)C(O)C1(O)C(OC(=O)c3ccccc3)C(C)C(C(C)CCCCCCC5O)C14)O2 (stereo unspecified) | > 100 µM | > 100 µM | > 100 µM | > 100 µM | > 100 µM | > 100 µM | > 100 µM | > 100 µM | > 31.6 µM |  |  |  |  |  |  |  |  |  |  | 
2 | COc1cccc(-c2cc(=O)c3ccccc3o2)c1N | > 100 µM | > 100 µM | > 100 µM | > 100 µM | > 100 µM | > 100 µM | > 100 µM | > 100 µM | > 100 µM | > 100 µM |  |  |  |  |  |  |  |  |  | 
3 | COCOC1/C=C/CCCC#C[C@H](C)C(=O)CC1 (stereo partly specified) | 27.1 µM | 23.1 µM | 5.99 µM | 24 µM | 19.2 µM | 11.5 µM | 29.4 µM | 25.3 µM | > 33.2 µM | > 29.4 µM |  |  |  |  |  |  |  |  |  | 
4 | Cc1nc(-c2ccc([N+](=O)[O-])cc2)cn2c1nc1ccccc12 | > 100 µM | > 100 µM | > 100 µM | > 100 µM | > 100 µM | > 100 µM | > 100 µM | 69 µM | > 100 µM | > 100 µM |  |  |  |  |  |  |  |  |  | 
5 | CCN(CC)CCc1c2c(nc3ccccc13)C(=O)c1cccnc1C2=O | 7.56 µM | 13.7 µM | 3.53 µM | 1.29 µM | 40.1 µM | 2.31 µM | 7.27 µM | 16.7 µM | 0.993 µM |  |  |  |  |  |  |  |  |  |  | 
6 | COc1ccc2[nH]c(O)c(/C=c3/cc4c(c(-c5cc(OC)c(OC)c(OC)c5)n3)=Nc3ccccc3-4)c2c1 | 83.5 µM | > 100 µM | 64.7 µM | > 100 µM | 99.2 µM | > 100 µM | > 100 µM | > 100 µM | 8.79 µM | 10.7 µM | 5.13 µM | > 100 µM | 3.49 µM | 5.3 µM | 3.43 µM | 7.54 µM | 1.94 µM | 26 µM | 26.7 µM | 1.59 µM
7 | C=C1CC(COc2cc(=O)oc3ccccc23)(c2ccccc2)OC1=O (stereo unspecified) | 2.97 µM | 13.5 µM | 2.87 µM | 3.78 µM | 2.34 µM | 3.2 µM | 6.13 µM | 12.3 µM | > 28 µM | > 20.8 µM |  |  |  |  |  |  |  |  |  | 
8 | CCOP(=O)(OCC)/C(C#N)=C/c1cnc(-c2ccccc2)[nH]1 | > 100 µM | > 100 µM | > 100 µM | > 100 µM | > 100 µM | > 100 µM | > 100 µM | > 100 µM | > 100 µM | > 100 µM |  |  |  |  |  |  |  |  |  | 
9 | C[N+]1=C2[B-](C(C)(C)C)=[N+](C(C)(C)C)[B-]2(C(C)(C)C)[N+](C)=C2[B-](C(C)(C)C)=[N+](C(C)(C)C)[B-]21C(C)(C)C (stereo unspecified) | > 100 µM | > 100 µM | > 100 µM | > 100 µM | > 100 µM | > 100 µM | > 100 µM | > 100 µM | > 100 µM | > 100 µM |  |  |  |  |  |  |  |  |  | 
10 | Cc1ccc([C@@H]2[C@@H](C(=O)c3ccccn3)[C@H](c3ccc(C)cc3)C[C@](O)(c3ccccn3)[C@H]2C(=O)c2ccccn2)cc1 | > 100 µM |  | > 100 µM | > 100 µM | > 100 µM | > 100 µM | > 100 µM | > 100 µM | > 100 µM | > 100 µM |  |  |  |  |  |  |  |  |  | 
11 | O=c1nc(N2CCN(c3ccccc3)CC2)ccn1C1OC(CO)C(O)C1O (stereo unspecified) | > 100 µM | > 100 µM | > 100 µM | > 100 µM | > 100 µM | > 100 µM | > 100 µM |  | > 100 µM | > 100 µM |  |  |  |  |  |  |  |  |  | 
12 | O=C(O)CN(CCNC(=O)OCC1c2ccccc2-c2ccccc21)CCNC(=O)OCC1c2ccccc2-c2ccccc21 | 67.4 µM | 52.5 µM | 31.9 µM | 70.3 µM | 42.7 µM | 32.4 µM | 42.1 µM | 67.5 µM | 50.2 µM | 49.3 µM |  |  |  |  |  |  |  |  |  | 
13 | O=C(CCCCCCCCC(=O)NN1C(=O)/C(=C\c2ccc(O)c(O)c2)SC1c1ccc(Cl)cc1)NN1C(=O)/C(=C\c2ccc(O)c(O)c2)SC1c1ccc(Cl)cc1 (stereo unspecified) | > 100 µM | > 100 µM | > 100 µM | > 100 µM | 43.8 µM | 57.6 µM | > 100 µM | > 100 µM | 28.3 µM | 15.3 µM |  |  |  |  |  |  |  |  |  | 
14 | CC(C)Sc1nc(C#N)cc2c1CCCC2 | > 100 µM | > 100 µM | > 100 µM | > 100 µM | 93.5 µM | 70.3 µM | > 100 µM | > 100 µM | 79.1 µM | 61.6 µM |  |  |  |  |  |  |  |  |  | 
15 | O=C1C(Cl)=C(N2CCN(C3=C(Cl)C(=O)c4ccccc4C3=O)CC2)C(=O)c2ccccc21 | 3.12 µM | 4.91 µM | 2.76 µM | 3.07 µM | 2.4 µM | 3.12 µM | 3.48 µM | 9.86 µM | 0.458 µM | 1.69 µM |  |  |  |  |  |  |  |  |  | 
16 | COCOC1/C=C/CCCCC2=C(C)C=C(C1)O2 (stereo unspecified) | > 100 µM | > 100 µM | > 100 µM | > 100 µM | > 100 µM | > 100 µM | > 100 µM | > 100 µM | > 100 µM | > 100 µM |  |  |  |  |  |  |  |  |  | 
